Results on 4 molecules are retold here after US8247431B2, “Heterocyclic hydrazide compound and pesticidal use of the same” (Sumitomo Chemical Company, Limited, priority 2007, dated 2012).

Assay type in all cases: in vivo
Experiment [1] concerns diamondback moths (Plutella xylostella). Kind of experiment: Test Example 1: spray on cabbage, third-instar larvae of diamondback moths. The settings on record: 20 ml/cup spray on cabbage, 10 third-instar larvae, counted after 5 days; for pest or weed control at 500 ppm: Plutella xylostella, 120 h, 500 ppm active ingredient, read-out: controlling value. The procedure:
Then, it will be shown by Test Examples that the present compound is effective in controlling harmful arthropods. In the Test Example, controlling values were calculated by the following equation: Controlling value(%)={1−(Cb×Tai)/(Cai×Tb)}×100 wherein Cb: the number of worms in a non-treated section before treatment Cai: the number of worms in a non-treated section on observation Tb: the number of worms in a treated-section before treatment Tai: the number of worms in a treated-section on observation. Preparations of the test compounds obtained in Formulation Example 5 were diluted with water so that the active ingredient concentration became 500 ppm, to prepare test spray solutions. At the same time, cabbage was planted in a polyethylene cup, and grown until the third true leaf or the fourth true leaf was developed. The test spray solution as described above was sprayed in an amount of 20 ml/cup on the cabbage. After the spray solution on the cabbage was dried, 10 third-instar larvae of diamondback moths (Plutella xylostella) were put on the cabbage. After 5 days, the number of diamondback moths was counted, and the controlling value was calculated by the above equation. Furthermore, preparations of the test compound (7) and a comparative compound of the formula [drawing 523] obtained in a formulation according to Formulation Example 5 were diluted with water so that the active ingredient concentration became 0.2 ppm, to prepare test spray solution. At the same time, cabbage was planted in a polyethylene cup, and grown until the third true leaf or the fourth true leaf was developed. The test spray solution as described above was sprayed in an amount of 20 ml/cup on the cabbage. After the spray solution on the cabbage was dried, 10 third-instar larvae of diamondback moths (Plutella xylostella) were put on the cabbage. After 5 days, the number of diamondback moths was counted, and the controlling value was calculated by the above equation.

In experiment [2] the test system is cotton aphids (Aphis gossypii). As to the kind of experiment: Test Example 2: spray on cucumber infested with cotton aphids. To be noted: topical, 144 h, 500 ppm active ingredient, 20 ml/cup spray on cucumber, about 30 aphids, counted six days after spraying, read-out: controlling value. As to the method: Then, it will be shown by Test Examples that the present compound is effective in controlling harmful arthropods. In the Test Example, controlling values were calculated by the following equation: Controlling value(%)={1−(Cb×Tai)/(Cai×Tb)}×100 wherein Cb: the number of worms in a non-treated section before treatment Cai: the number of worms in a non-treated section on observation Tb: the number of worms in a treated-section before treatment Tai: the number of worms in a treated-section on observation. Preparations of the test compounds obtained in Formulation Example 5 were diluted with water so that the active ingredient concentration became 500 ppm to prepare test spray solutions. At the same time, cucumber was planted in a polyethylene cup, and was grown until the first true leaf was developed. About 30 cotton aphids were put on the cucumber. One day after, the test spray solution as described above was sprayed in an amount of 20 ml/cup on the cucumber. Six days after spraying, the number of cotton aphids (Aphis gossypii) was counted, and a controlling value was calculated by the above equation.

Experiment [3] concerns Spodoptera litura. As to the kind of experiment: Test Example 3: spray on cabbage, fourth-instar larvae of Spodoptera litura. The settings on record: 120 h, 500 ppm active ingredient, 20 ml/cup spray on cabbage, 10 fourth-instar larvae, counted after 5 days, read-out: controlling value. The procedure: Then, it will be shown by Test Examples that the present compound is effective in controlling harmful arthropods. In the Test Example, controlling values were calculated by the following equation: Controlling value(%)={1−(Cb×Tai)/(Cai×Tb)}×100 wherein Cb: the number of worms in a non-treated section before treatment Cai: the number of worms in a non-treated section on observation Tb: the number of worms in a treated-section before treatment Tai: the number of worms in a treated-section on observation. Preparations of the test compounds obtained in Formulation Example 5 were diluted with water so that the active ingredient concentration became 500 ppm to prepare test spray solutions. At the same time, cabbage was planted in a polyethylene cup, and grown until the third true leaf or the fourth true leaf was developed. The test spray solution as described above was sprayed in an amount of 20 ml/cup on the cabbage. After the spray solution sprayed on the cabbage was dried, 10 fourth-instar larvae of Spodoptera litura were put on the cabbage. After 5 days, the number of Spodoptera litura surviving on the cabbage leaves was counted, and a controlling value was calculated by the above equation.

Experiment [4] has as its system Adoxophyes orana fasciata. Kind of experiment: Test Example 4: spray on apple seedling, first-instar larvae of Adoxophyes orana fasciata. The settings on record: 168 h, 500 ppm active ingredient, 20 ml spray on apple seedling, about 30 first-instar larvae, counted seven days after spraying, read-out: controlling value. As to the method: Then, it will be shown by Test Examples that the present compound is effective in controlling harmful arthropods. In the Test Example, controlling values were calculated by the following equation: Controlling value(%)={1−(Cb×Tai)/(Cai×Tb)}×100 wherein Cb: the number of worms in a non-treated section before treatment Cai: the number of worms in a non-treated section on observation Tb: the number of worms in a treated-section before treatment Tai: the number of worms in a treated-section on observation. Preparations of the test compounds obtained in Formulation Example 5 were diluted with water so that the active ingredient concentration became 500 ppm to prepare test spray solutions. At the same time, 20 ml of the test spray solution as described above was sprayed to an apple seedling (28 day-old seeding, tree height: about 15 cm) planted in a plastic cup. The apple seedling was air-dried to such an extent that the spray solution sprayed on the apple seedling was dried. About 30 first-instar larvae of Adoxophyes orana fasciata were released. Seven days after spraying, the number of worms surviving on the apple seedling was counted, and a controlling value was calculated by the above equation.

For the molecule `COC(=O)NNC(=O)c1nc(Cl)cc(C)c1NC(=O)c1cc(Br)nn1-c1ncccc1Cl` [Compound 7, N′-(3-{[5-bromo-2-(3-chloro-pyridin-2-yl)-2H-pyrazole-3-carbonyl]-amino}-6-chloro-4-methyl-pyridine-2-carbonyl)-hydrazinecarboxylic acid methyl ester], the control value entry in experiment [1] (0.2 ppm active ingredient) is “more than 80%”. Further, the pest or weed control at 500 ppm in experiment [1] is no less than 90%; in experiment [2], no less than 90%; in experiment [3] it was no less than 80%; in experiment [4], no less than 90%.
In the case of `COC(=O)N(C)NC(=O)c1nc(Cl)cc(C)c1NC(=O)c1cc(Br)nn1-c1ncccc1Cl` [Compound 8, N′-(3-{[5-bromo-2-(3-chloro-pyridin-2-yl)-2H-pyrazole-3-carbonyl]-amino}-6-chloro-4-methyl-pyridine-2-carbonyl)-N-methyl-hydrazinecarboxylic acid methyl ester], the pest or weed control at 500 ppm in experiment [1] is no less than 90%; in experiment [2] it was no less than 90%; in experiment [3] it was no less than 80%; in experiment [4], no less than 90%.
Take `COC(=O)NNC(=O)c1nc(Cl)cc(Cl)c1NC(=O)c1cc(Br)nn1-c1ncccc1Cl` [Compound 14, N′-(3-{[5-bromo-2-(3-chloro-pyridin-2-yl)-2H-pyrazole-3-carbonyl]-amino}-4,6-dichloro-pyridine-2-carbonyl)-hydrazinecarboxylic acid methyl ester]: the pest or weed control at 500 ppm in experiment [1] was no less than 90%; in experiment [2] it was no less than 90%; in experiment [3], no less than 80%; in experiment [4], no less than 90%.
As to `COC(=O)NNC(=O)c1nc(Cl)cc(Br)c1NC(=O)c1cc(Br)nn1-c1ncccc1Cl` [Compound 15, N′-(4-bromo-3-{[5-bromo-2-(3-chloro-pyridin-2-yl)-2H-pyrazole-3-carbonyl]-amino}-6-chloro-pyridine-2-carbonyl)-hydrazine carboxylic acid methyl ester], the pest or weed control at 500 ppm was no less than 90% in experiment [1], no less than 90% in experiment [2], no less than 80% in experiment [3] and no less than 90% in experiment [4].
